# Reference: PMC9368227, “Investigation of Radiotracer Metabolic Stability In Vitro with CYP-Overexpressing Hepatoma Cell Lines” (Cells, 2022)
# What was measured:
# HepG2 CYP1A2 = test: Radiotracer metabolic stability, CYP1A2-overexpressing HepG2 cells; type: in vitro ADME, human; conditions: radio-TLC
# Experimental: CYP-overexpressing human hepatocellular carcinoma cells (HepG2) were previously generated on the basis of subcloning human CYP1A2 [18], CYP2C19 [20], and CYP3A4 [21] cDNA into a lentiviral expression vector. The cDNA expression in the resulting vector was controlled by the human cytomegalovirus (CMV) promoter. The lentivirus expression vectors were used to produce recombinant lentivirus particles according to standard methods to infect HepG2 cells. Infected cells were selected with 3 µg/mL blasticidin for CYP2C19 and CYP3A4 and 500 µg/mL zeocin for CYP1A2 overexpression 48 h after infection. Within 3–4 weeks, antibiotic-resistant cell colonies were picked to obtain single cell-derived HepG2 clones. For more detailed information on the generation procedure of CYP-overexpressing HepG2 cells, see Steinbrecht et al..
# HepG2 cells were cultured in DMEM GlutaMax (Gibco, Paisley, UK) with 10% fetal calf serum (FCS) and with selective antibiotics (penicillin/streptomycin for wildtype, Zeocin (InvivoGen, San Diego, CA, USA) for CYP1A2, and Blasticidin (Gibco, Carlsbad, CA, USA) for CYP2C19 and CYP3A4 cultures). […] Cell density was determined with a cell counter (CASY® Model TT from Schärfe System, Reutlingen, Germany). […]
# (§1) Incubations with radiotracer compounds were conducted, on the one hand, with radioactive ^18F-labeled compounds alone (time dependency) and, on the other hand, in the presence of 50 µM nonradioactive reference (carrier addition). For the investigation of a time-dependent metabolite formation, 2 µL aliquots were withdrawn from the supernatant, directly spotted onto the TLC plate, and analyzed as described above. […]
# UPLC–MS analyses were performed to verify the degradation behavior of the test compounds and to gain insights into the identity of the formed metabolites. […] Additionally, incubations with the nonradioactive references were carried out with 100 nM or 50 µM (according to the carrier-added samples) and analyzed. UPLC–MS/MS was performed using System 2 (55% isocratic elution for quantification of intact compound, or 25–75% gradient for nonradioactive metabolite analysis). […]
# [1] = tested on: human liver microsomes (HLMs); test: Microsome assay, human liver microsomes; type: in vitro ADME; conditions: for Amount of intact tracer: radio-TLC
# Experimental: The stability of [^18F]1 toward liver microsomes was analyzed under oxidative conditions with MLMs (MSMCP, Lot: MS046-C) and HLMs (HMMCPL; Lot: PL050E-B) according to a previously described procedure. In brief, 12.5 µL of the respective microsomes (final 1 mg/mL) were mixed with 110.4 µL of PBS, followed by the addition of 100 µL of [^18F]1 (with 5 MBq and 1% ethanol; final 0.4% ethanol) and 2.1 µL of reference compound (final concentration 50 µM 1), or an equivalent of DMSO. The resulting mixture was mixed at 37 °C for 5 min, and the reaction was then initiated by the addition of 25 µL of NADPH (final 2 mM). After 1 h incubation, the resulting samples were mixed with ice-cold ACN (1/4, v/v) and vortexed for 30 s, placed on ice for 4 min, and finally centrifuged at 13,200 rpm for 5 min at 4 °C. The supernatant was separated and used for further analysis by radio-HPLC (6–10 µL injection volume; System 1b with 25–75% gradient elution) and radio-TLC analysis (2 µL applied on TLC, analysis as described above).
# all utilized cell lines = test: Activity distribution between supernatant, wash and cells, summary over all utilized cell lines; type: in vitro ADME; conditions: end of incubation period (2 h); range over cell lines
# Experimental: HepG2 cells were cultured in DMEM GlutaMax (Gibco, Paisley, UK) with 10% fetal calf serum (FCS) and with selective antibiotics (penicillin/streptomycin for wildtype, Zeocin (InvivoGen, San Diego, CA, USA) for CYP1A2, and Blasticidin (Gibco, Carlsbad, CA, USA) for CYP2C19 and CYP3A4 cultures). As a negative control, cultures of CHO cultivated in Ham’s F-12 medium (Gibco) with 10% FCS and 2 mM glutamine were added for the radiotracer experiments. Cells were handled under a laminar flow hood (Thermo Scientific^TM Safe 2020, Langenselbold, Germany) and were split once or twice a week by trypsinization. Cell cultures were stored horizontally in a humidified incubator (Heracell240i) at 37 °C and 5% CO2. […] Cell density was determined with a cell counter (CASY® Model TT from Schärfe System, Reutlingen, Germany). […]
# Initially, CYP-overexpressing HepG2 and, as controls, HepG2 wildtype, as well as CHO (Chinese hamster ovary) cells, were incubated as an adhered monolayer in a 96-well plate with a relatively high activity concentration of [^18F]1 (25 MBq/mL; workflow according to Figure 1A, upper panel), and the supernatant and cell lysates were investigated by radio-TLC. […] As a result (Table 1), the main fraction of activity was found in the supernatant (64–91%), while only a negligible to low amount of activity was measured in cell lysates (1–16%). […]
# [2] = Radiotracer incubation in buffer only (control, without any cell line), radio-TLC; type: in vitro ADME
# Experimental: HepG2 cells were cultured in DMEM GlutaMax (Gibco, Paisley, UK) with 10% fetal calf serum (FCS) and with selective antibiotics (penicillin/streptomycin for wildtype, Zeocin (InvivoGen, San Diego, CA, USA) for CYP1A2, and Blasticidin (Gibco, Carlsbad, CA, USA) for CYP2C19 and CYP3A4 cultures). As a negative control, cultures of CHO cultivated in Ham’s F-12 medium (Gibco) with 10% FCS and 2 mM glutamine were added for the radiotracer experiments. Cells were handled under a laminar flow hood (Thermo Scientific^TM Safe 2020, Langenselbold, Germany) and were split once or twice a week by trypsinization. Cell cultures were stored horizontally in a humidified incubator (Heracell240i) at 37 °C and 5% CO2. During the time of experimental work, the utilized cell lines were regularly checked for mycoplasma. Cells were seeded in duplicates into a 96-well plate (CellStar®) with a density of 3 × 10^5 cells/well and cultured until the next day at 37 °C and 5% CO2. Cell density was determined with a cell counter (CASY® Model TT from Schärfe System, Reutlingen, Germany). Before the addition of substrates, cells were washed twice with Krebs–Henseleit buffer (KHB). The HEPES-supplemented Krebs–Henseleit buffer (pH 7.4, KHB) was freshly prepared using HEPES (5.95 g/L), D-glucose (2.0 g/L), magnesium sulfate (0.141 g/L), potassium dihydrogenphosphate (0.16 g/L), potassium chloride (0.35 g/L), sodium chloride (6.9 g/L), calcium chloride dihydrate (0.373 g/L), and sodium bicarbonate (2.1 g/L), followed by adjustment to pH 7.4 with NaOH. […]
# as §1
structure (smiles),measurement,setting,value
"Cc1ccc(-c2cc(C[18F])nn2-c2ccc(S(C)(=O)=O)cc2)cc1 [[^18F]1, 3-([^18F]fluoromethyl)-1-[4-(methylsulfonyl)phenyl]-5-(p-tolyl)-1H-pyrazole]",Intact tracer in supernatant,"HepG2 CYP1A2; 2 h incubation, 2–4 MBq/mL (28–187 nM)",14.6%
same,Metabolic turnover / stability of radiotracer (in words),"HepG2 CYP1A2; HepG2 CYP1A2, up to 2 h",formation of radiometabolites was observed
same,Increase of intact tracer amount with carrier addition,"[1]; 1 h, CA versus without carrier addition",sevenfold
same,Amount of intact tracer,"[1]; 1 h, carrier-added (CA), 50 µM 1",30.3%
same,Amount of intact tracer,"[1]; 1 h, without carrier addition, 38 MBq/mL (931 nM), 1 mg/mL microsomes, NADPH",4.2%
same,Formation of second metabolite (M2),[1]; 1 h incubation,observed
same,Fraction of activity in cell lysates,all utilized cell lines,1–16%
same,Fraction of activity in supernatant,all utilized cell lines,64–91%
same,Metabolic turnover / stability of radiotracer (in words),"[2]; buffer only, up to 2 h, radio-TLC",no metabolic turnover
same,Defluorination without additional enzymes in the incubation buffer (KHB),[2]; reference incubation without any cell lines,to a minor extent
